# Assay results reported in patent US4024277A, “Phosphoro-aminosulfenyl derivatives of benzofuran carbamates” (priority 1975, dated 1977).
# Columns and labels:
# [1] = tested on: large milkweed bug; assay: Initial insecticidal activity, milkweed bug; format: in vivo, Oncopeltus fasciatus (Dallas); conditions: Oncopeltus fasciatus, 48-hour exposure, read-out: % Kill, Milkweed Bug
# Source text: (§1) a. Initial Insecticidal Activity
# (§2) In this test, a candidate insecticide, in solution, is applied to either infested or uninfested plants or containers by spraying or dipping. (The preferred test procedure varies with insect species. The dipping method is better than the spraying method, and vice versa, for certain species of insects. Also some species are better adapted to the test by infesting after the chemical treatment rather than before.) Once the tests have been established, a 48-hour exposure period is observed before reading the tests. Insect species included in these tests are Mexican bean beetle (Epilachna varivestis Mulsant), pea aphid [Acyrthosiphon pisum (Harris)], southern armyworm [Spodoptera eridania (Cramer)], twospotted spider mite (Tetranychus urticae Koch), large milkweed bug [Oncopeltus fasciatus (Dallas)], plum curculio [Conotrachelus nenuphar (Herbst)], confused flour beetle (Tribolium confusum Jacquelin duVal) and granary weevil [Sitophilus granarius (Linnaeus)]. Test results are set forth in Table I. A control sample, comprising the solution without the candidate insecticide, is also included.
# [2] = tested on: plum curculio; assay: Initial insecticidal activity, plum curculio; format: in vivo, Conotrachelus nenuphar (Herbst); conditions: Conotrachelus nenuphar, 48-hour exposure, read-out: % Kill, Plum Curculio
# Source text: as §1, §2
# [3] = tested on: confused flour beetle; assay: Initial insecticidal activity, confused flour beetle; format: in vivo, Tribolium confusum Jacquelin duVal; conditions: Tribolium confusum, 48-hour exposure, read-out: % Kill, Confused Flour Beetle
# Source text: as §1, §2
# [4] = tested on: Mexican bean beetle; assay: Initial insecticidal activity, Mexican bean beetle; format: in vivo, Epilachna varivestis Mulsant; conditions: Epilachna varivestis, 48-hour exposure, read-out: % Kill, Mexican Bean Beetle
# Source text: as §1, §2
# [5] = tested on: pea aphid; assay: Initial insecticidal activity, pea aphid; format: in vivo, Acyrthosiphon pisum (Harris); conditions: Acyrthosiphon pisum, 48-hour exposure, read-out: % Kill, Pea Aphid
# Source text: as §1, §2
# [6] = tested on: southern armyworm; assay: Initial insecticidal activity, southern armyworm; format: in vivo, Spodoptera eridania (Cramer); conditions: Spodoptera eridania, 48-hour exposure, read-out: % Kill, Southern Armyworm
# Source text: as §1, §2
# [7] = tested on: twospotted spider mite; assay: Initial insecticidal activity, twospotted spider mite; format: in vivo, Tetranychus urticae Koch; conditions: Tetranychus urticae, 48-hour exposure, read-out: % Kill, Twospotted Spider Mite
# Source text: as §1, §2
# [8] = tested on: large milkweed bug; assay: Seven-day residual insecticidal activity, milkweed bug; format: in vivo, Oncopeltus fasciatus (Dallas); conditions: Oncopeltus fasciatus, 48-hour exposure, read-out: % Kill, Milkweed Bug
# Source text: (§3) b. Seven-Day Residual Insecticidal Activity
# (§4) In this test, a candidate insecticide, in solution, is applied to uninfested plants or containers by dipping or spraying. A seven-day holding period is necessary before infestation. A 48-hour exposure period is observed before evaluation of the tests. The insect species used in this type of test are the same as those listed under initial activity.
# [9] = tested on: plum curculio; assay: Seven-day residual insecticidal activity, plum curculio; format: in vivo, Conotrachelus nenuphar (Herbst); conditions: Conotrachelus nenuphar, 48-hour exposure, read-out: % Kill, Plum Curculio
# Source text: as §3, §4
# [10] = tested on: confused flour beetle; assay: Seven-day residual insecticidal activity, confused flour beetle; format: in vivo, Tribolium confusum Jacquelin duVal; conditions: Tribolium confusum, 48-hour exposure, read-out: % Kill, Confused Flour Beetle
# Source text: as §3, §4
# [11] = tested on: Mexican bean beetle; assay: Seven-day residual insecticidal activity, Mexican bean beetle; format: in vivo, Epilachna varivestis Mulsant; conditions: Epilachna varivestis, 48-hour exposure, read-out: % Kill, Mexican Bean Beetle
# Source text: as §3, §4
# [12] = tested on: pea aphid; assay: Seven-day residual insecticidal activity, pea aphid; format: in vivo, Acyrthosiphon pisum (Harris); conditions: Acyrthosiphon pisum, 48-hour exposure, read-out: % Kill, Pea Aphid
# Source text: as §3, §4
# [13] = tested on: southern armyworm; assay: Seven-day residual insecticidal activity, southern armyworm; format: in vivo, Spodoptera eridania (Cramer); conditions: Spodoptera eridania, 48-hour exposure, read-out: % Kill, Southern Armyworm
# Source text: as §3, §4
# [14] = tested on: twospotted spider mite; assay: Seven-day residual insecticidal activity, twospotted spider mite; format: in vivo, Tetranychus urticae Koch; conditions: Tetranychus urticae, 48-hour exposure, read-out: % Kill, Twospotted Spider Mite
# Source text: as §3, §4
# [15] = tested on: Mexican bean beetle; assay: Systemic insecticidal activity (soil/water), Mexican bean beetle; format: in vivo, Epilachna varivestis Mulsant; conditions: Epilachna varivestis, 48-hour exposure, read-out: % Kill, Mexican Bean Beetle
# Procedure: (§5) c. Systemic Insecticidal Acitivity (Soil/Water)
# (§6) In this test, a candidate insecticide, in solution, is added to the soil of either uninfested pinto bean seedlings (Phaseolus vulgaris) or uninfested broad bean seedlings (Vicia faba var. Windsor). The plant species used depend on the insect species in the test. Usually, a 72-hour translocation period before infestation is required, followed by a 48-hour exposure period, before evaluation of the tests. The insect species used in the systemic tests are Mexican bean beetle, southern armyworm, pea aphid, and twospotted spider mite.
# [16] = tested on: pea aphid; assay: Systemic insecticidal activity (soil/water), pea aphid; format: in vivo, Acyrthosiphon pisum (Harris); conditions: Acyrthosiphon pisum, 48-hour exposure, read-out: % Kill, Pea Aphid
# Procedure: as §5, §6
# [17] = tested on: southern armyworm; assay: Systemic insecticidal activity (soil/water), southern armyworm; format: in vivo, Spodoptera eridania (Cramer); conditions: Spodoptera eridania, 48-hour exposure, read-out: % Kill, Southern Armyworm
# Procedure: as §5, §6
# [18] = tested on: twospotted spider mite; assay: Systemic insecticidal activity (soil/water), twospotted spider mite; format: in vivo, Tetranychus urticae Koch; conditions: Tetranychus urticae, 48-hour exposure, read-out: % Kill, Twospotted Spider Mite
# Procedure: as §5, §6
# [19] = tested on: twospotted spider mite; assay: Ovicidal activity against the twospotted spider mite; format: in vivo, Tetranychus urticae Koch; conditions: Tetranychus urticae, eggs, 7 to 10 days, read-out: % Kill (ovicidal)
# Procedure: d. Ovicidal Activity Against the Twospotted Spider Mite
# In this test, Pinto bean seedlings are infested with female twospotted spider mites; about 3-4 hours are allowed for egg deposition. Plants are then dipped in TEPP (tetraethylpyrophosphate-commercial emulsifiable concentrate (EC)) solution containing 936 ppm of active ingredient. TEPP kills motile forms on the leaf and promptly degrades without effecting the egg stage. Two to three hours after TEPP treatment the plants are again dipped -- this time into a candidate insecticide solution. The test plants are maintained for 7 to 10 days. Termination of exposure is determined by the time required to attain complete hatch in the untreated check.
smiles,measurement,setting,value
"CCCN(SN(C)C(=O)Oc1cccc2c1OC(C)(C)C2)P(=O)(OCC)OCC [4(c), 2,3-dihydro-2,2-dimethyl-7-benzofuranyl [(N-diethoxyphosphinyl) (N-n-propyl)aminosulfenyl][methyl]carbamate]",mortality at 39 ppm,[1]; 39 ppm,90%
same,mortality at 156 ppm,[1]; 156 ppm,100%
same,mortality at 1250 ppm,[1]; 1250 ppm,100%
same,mortality at 39 ppm,[2]; 39 ppm,0%
same,mortality at 156 ppm,[2]; 156 ppm,50%
same,mortality at 1250 ppm,[2]; 1250 ppm,10%
same,mortality at 39 ppm,[3]; 39 ppm,0%
same,mortality at 156 ppm,[3]; 156 ppm,8%
same,mortality at 1250 ppm,[3]; 1250 ppm,65%
same,mortality at 39 ppm,[4]; 39 ppm,86%
same,mortality at 156 ppm,[4]; 156 ppm,100%
same,mortality at 1250 ppm,[4]; 1250 ppm,95%
same,mortality at 39 ppm,[5]; 39 ppm,33%
same,mortality at 156 ppm,[5]; 156 ppm,100%
same,mortality at 1250 ppm,[5]; 1250 ppm,100%
same,mortality at 39 ppm,[6]; 39 ppm,0%
same,mortality at 156 ppm,[6]; 156 ppm,29%
same,mortality at 1250 ppm,[6]; 1250 ppm,100%
same,mortality at 39 ppm,[7]; 39 ppm,8%
same,mortality at 156 ppm,[7]; 156 ppm,37%
same,mortality at 1250 ppm,[7]; 1250 ppm,100%
same,mortality at 39 ppm,[8]; 39 ppm,75%
same,mortality at 156 ppm,[8]; 156 ppm,95%
same,mortality at 1250 ppm,[8]; 1250 ppm,100%
same,mortality at 39 ppm,[9]; 39 ppm,0%
same,mortality at 156 ppm,[9]; 156 ppm,0%
same,mortality at 1250 ppm,[9]; 1250 ppm,19%
same,mortality at 39 ppm,[10]; 39 ppm,0%
same,mortality at 156 ppm,[10]; 156 ppm,0%
same,mortality at 1250 ppm,[10]; 1250 ppm,0%
same,mortality at 39 ppm,[11]; 39 ppm,27%
same,mortality at 156 ppm,[11]; 156 ppm,62%
same,mortality at 1250 ppm,[11]; 1250 ppm,100%
same,mortality at 39 ppm,[12]; 39 ppm,0%
same,mortality at 156 ppm,[12]; 156 ppm,0%
same,mortality at 1250 ppm,[12]; 1250 ppm,100%
same,mortality at 39 ppm,[13]; 39 ppm,0%
same,mortality at 156 ppm,[13]; 156 ppm,5%
same,mortality at 1250 ppm,[13]; 1250 ppm,60%
same,mortality at 39 ppm,[14]; 39 ppm,0%
same,mortality at 156 ppm,[14]; 156 ppm,0%
same,mortality at 1250 ppm,[14]; 1250 ppm,2%
same,mortality at 10 ppm,[15]; 10 ppm,7%
same,mortality at 39 ppm,[15]; 39 ppm,65%
same,mortality at 156 ppm,[15]; 156 ppm,94%
same,mortality at 10 ppm,[16]; 10 ppm,0%
same,mortality at 39 ppm,[16]; 39 ppm,93%
same,mortality at 156 ppm,[16]; 156 ppm,100%
same,mortality at 10 ppm,[17]; 10 ppm,0%
same,mortality at 39 ppm,[17]; 39 ppm,0%
same,mortality at 156 ppm,[17]; 156 ppm,42%
same,mortality at 10 ppm,[18]; 10 ppm,0%
same,mortality at 39 ppm,[18]; 39 ppm,0%
same,mortality at 156 ppm,[18]; 156 ppm,7%
same,mortality at 156 ppm,[19]; 156 ppm,0%
same,mortality at 1250 ppm,[19]; 1250 ppm,66%
